Reference: BindingDB's records for patent US20250270212 (Padarn Therapeutics, 2025)

Molecular target: Wee1-like protein kinase (Homo sapiens, UniProt P30291)
Assay: Wee1 Enzymatic Activity Inhibition Assay
Procedure: The enzymatic assay used to determine activity was a Luminescence assay using a Microplate Reader (BMG, ClarioStar Plus). The enzymatic reaction was carried out in assay buffer (40 mM TRIS-HCl pH 7.4-7.6, 20 mM MgCl2, 0.05 mM DTT, 0.1 mg/ml BSA, 5 mM MnCl2). The compounds were dispensed on a 384 well Diamond Well Plate (Axigen, Cat #P-384-120SQ-C-S) using the Biomek FX liquid handling system at 100× solutions of compounds in DMSO. 2×Wee1-PolyE4Y1 mix (final concentration 0.85 ng/μl of Wee1 and 0.2 μg/μl of PolyE4Y1) was prepared in 1× Assay buffer and 5.5 μl of mixture per well was added into 384w white Reaction plate with NBS (Corning, Cat #4513). 5.5 μl of PolyE4Y1 substrate w/o Wee1 in 1× buffer was used for negative control. Plates were centrifuged for 1 min at 100 g. Next step the Compounds were added to Reaction plate using Biomek station via following steps: 1 μl of 100× compounds (in DMSO) were mixed thoroughly with 49 μl of 2×10 μM ATP in Assay Buffer, then 5.5 μl of this mixture was added to Reaction plate with 5.5 μl of Wee1-PolyE4Y1 mix. Plates were centrifuged for 1 min at 100 g and incubated for 1 h at room temperature. Next 3 μL of ADP-Glo reagent (Promega, ADP-Glo™ Kinase Assay, Cat #V9102) per well was added. Plates were incubated for 30 minutes at room temperature. Then 6 μL of Kinase detection reagent (Promega, ADP-Glo™ Kinase Assay, Cat #V9102) per well was added and the Luminescence was measured using Microplate Reader.

Chain of Wee1-like protein kinase (P30291 whole entry): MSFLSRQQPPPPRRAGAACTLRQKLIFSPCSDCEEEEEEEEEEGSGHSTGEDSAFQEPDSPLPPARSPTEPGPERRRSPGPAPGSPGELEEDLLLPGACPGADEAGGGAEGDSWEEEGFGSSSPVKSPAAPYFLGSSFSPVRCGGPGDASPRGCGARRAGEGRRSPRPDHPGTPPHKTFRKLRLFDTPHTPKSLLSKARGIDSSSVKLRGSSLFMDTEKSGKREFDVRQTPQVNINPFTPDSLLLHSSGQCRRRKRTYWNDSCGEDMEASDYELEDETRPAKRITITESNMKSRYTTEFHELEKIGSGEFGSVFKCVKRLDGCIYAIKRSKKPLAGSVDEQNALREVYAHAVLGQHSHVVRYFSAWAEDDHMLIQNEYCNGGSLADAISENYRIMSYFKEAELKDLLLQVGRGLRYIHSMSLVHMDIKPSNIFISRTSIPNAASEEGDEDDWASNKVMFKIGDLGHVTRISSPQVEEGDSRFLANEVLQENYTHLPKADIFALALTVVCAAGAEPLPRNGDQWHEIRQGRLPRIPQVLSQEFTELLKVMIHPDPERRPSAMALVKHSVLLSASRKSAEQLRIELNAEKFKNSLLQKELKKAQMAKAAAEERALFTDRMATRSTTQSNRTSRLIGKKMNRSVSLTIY

`C=CCn1c(=O)c2cnc(Nc3ccc(N4CCN(Cc5cc(Cn6c(=O)[nH]c(=O)c7c(F)cccc76)ccc5F)CC4)cc3)nc2n1-c1cccc(C(C)(C)O)n1` [US20250270212, Compound 34] showed an EC50 of less than 10 nM.

Compound `Cn1c2nc(Nc3ccc(N4CCN(C(=O)c5cc(Cc6n[nH]c(=O)c7ccccc67)ccc5F)CC4)cc3)ncc2c(=O)n1-c1ccccn1` [US20250270212, Compound 12] has an EC50 greater than 1000 nM.

Compound `Cn1c(=O)c2cnc(Nc3ccc(N4CCCC(c5nc6cccc(C(N)=O)c6[nH]5)C4)cc3)nc2n1-c1ccccn1` (stereo unspecified) [US20250270212, Compound 96] has an EC50 of less than 10 nM.

In the case of `Cn1c(=O)c2cnc(Nc3ccc(N4CCN(C(=O)c5cc(Cc6n[nH]c(=O)c7ccccc67)ccc5F)CC4)cc3)nc2n1-c1cccc(C(C)(C)O)n1` [US20250270212, Compound 7], the EC50 is reported as less than 10 nM.

In the case of `C=CCn1c(=O)c2cnc(Nc3ccc(N4CCN(Cc5ccc(-c6[nH]c7cc(F)cc8c7c6CCNC8=O)cc5)CC4)cc3)nc2n1-c1ccccn1` [US20250270212, Compound 39], the EC50 is reported as less than 10 nM.

Work on `C=CCn1c(=O)c2cnc(Nc3ccc(N4CCN(C(=O)c5cc(Cn6c(=O)[nH]c(=O)c7c(F)cccc76)ccc5F)CC4)cc3)nc2n1-c1cccc(C(C)(C)O)n1` [US20250270212, Compound 16] yielded an EC50 of less than 10 nM.

In the case of `Cn1c(=O)c2cnc(Nc3ccc(N4CCN(Cc5cc(Cc6n[nH]c(=O)c7ccccc67)ccc5F)CC4)cc3)nc2n1-c1cccc(C(C)(C)O)n1` [US20250270212, Compound 8], the EC50 is reported as less than 10 nM.

`Cn1c2nc(Nc3ccc(N4CCC(c5nc6cccc(C(N)=O)c6[nH]5)CC4)cc3)ncc2c(=O)n1-c1ccccn1` [US20250270212, Compound 91] was tested, and the EC50 was greater than 1000 nM.

`C=CCn1c(=O)c2cnc(NCCNC(=O)c3cc(Cc4n[nH]c(=O)c5ccccc45)ccc3F)nc2n1-c1cccc(C(C)(C)O)n1` [US20250270212, Compound 6] showed an EC50 greater than 1000 nM.

With `C=CCn1c(=O)c2cnc(Nc3ccc(N4CCN(C(=O)c5cc(Cc6n[nH]c(=O)c7ccccc67)ccc5F)CC4)cc3)nc2n1-c1cccc(C(C)(C)O)c1` [US20250270212, Compound 1] the EC50 was less than 10 nM.

`C=CCn1c(=O)c2cnc(Nc3ccc(N4CCN(C(=O)c5cc(Cn6c(=O)[nH]c(=O)c7c(F)cccc76)ccc5F)CC4)cc3)nc2n1-c1ccccn1` [US20250270212, Compound 28] showed an EC50 of less than 10 nM.

For `C=CCn1c(=O)c2cnc(NC3CCN(C(=O)c4cc(Cc5n[nH]c(=O)c6ccccc56)ccc4F)CC3)nc2n1-c1cccc(C(C)(C)O)n1` [US20250270212, Compound 4], the EC50 was greater than 1000 nM.

`Cn1c(=O)c2cnc(N3CCN(C(=O)c4cc(Cc5n[nH]c(=O)c6ccccc56)ccc4F)CC3)nc2n1-c1ccccn1` [US20250270212, Compound 5] gave an EC50 greater than 1000 nM.

Work on `C=CCn1c(=O)c2cnc(N3CCN(C(=O)c4cc(Cc5n[nH]c(=O)c6ccccc56)ccc4F)CC3)nc2n1-c1cccc(C(C)(C)O)n1` [US20250270212, Compound 2] yielded an EC50 greater than 1000 nM.

`C=CCn1c(=O)c2cnc(NC3CCN(Cc4ccc(-c5[nH]c6cc(F)cc7c6c5CCNC7=O)cc4)CC3)nc2n1-c1cccc(C(C)(C)O)n1` [US20250270212, Compound 47] was tested, and the EC50 was greater than 1000 nM.

In the case of `Cn1c2nc(Nc3ccc(N4CCN(C(=O)c5cc(Cn6c(=O)[nH]c(=O)c7c(F)cccc76)ccc5F)CC4)cc3)ncc2c(=O)n1-c1ccccn1` [US20250270212, Compound 17], the EC50 is reported as greater than 1000 nM.
